The experiment relates to human skin fibroblasts (WS1). Description: Cell proliferation of normal cells, crystal violet method. Type of experiment: cell-based. To be noted: at the indicated concentrations (not given); FIG. 17. As to the method:
The compound according to the invention, and in particular the synthetic quercetin derivatives described and illustrated herein were investigated in vitro by using human tumour cells and assessing their impact on the tumour proliferative capacity, with regard to the tumours described above. In particular, the following human tumour cell lines were assessed experimentally: 1) HCT116, colon adenocarcinoma cells; 2) H1299, lung adenocarcinoma cells; 3) A375, melanoma cells, and 4) A431, squamous skin cell carcinoma; 5) 786-0, renal carcinoma cells; 6) PC3, prostate carcinoma cells; 7) BT549, mammary carcinoma cells; 8) CAL27, tongue carcinoma cells (belonging to the head-and-neck carcinomas); 9) HepG2, hepatocellular carcinoma cells; 10) PANC-1, pancreas carcinoma cells; 11) T24, bladder carcinoma cells; 12) OVCAR-3, ovarian carcinoma cells. In addition, a normal human cell line, WS1 (skin fibroblasts) was also treated with the novel synthetic compounds. Cell proliferation was quantified by the crystal violet method with a spectrophotometer. In short, after acquiring serial images (0, 24 and 48 hrs) with the EVOS XL Cell Imaging System microscope (Thermo Fisher Scientific), the cells imaged at 48 hrs were fixed with paraformaldehyde (4%) and stained with Crystal Violet (1%). Then, the specific absorbance (λ=590 nm) at 48 hrs was measured with a spectrophotometer (Infinite®200 PRO, Tecan). Data analysis was carried out by using ad-hoc Excel files for graphical representation and statistical processing (t-test). […] This tool allows cell growth to be monitored from electrical impedance-derived quantitative values (the so-called Cell Index) measured by tiny electrodes located at the base of the culture wells. Proliferation is monitored for several days (5-7) by setting a Cell Index per minute measure on the instrument. The data are analysed by processing various parameters calculated by the dedicated software, such as the cell duplication time, the slope and the Max Cell Index.

In the case of “2-(3,4-Dihydroxyphenyl)-3-hexyloxy-5,7-dihydroxy-4H-chromen-4-one [Compound 2]”, the “proliferation of normal human skin fibroblasts (WS1) vs vehicle control” value is on record as “do not disrupt”.

These data come from patent US12059400B2, “Medical compound” (VERA SALUS RICERCA S.R.L., priority 2017, dated 2024).
